Key:
Type in all cases: biochemical
HER-2 = biological target: T1, HER-2 (Homo sapiens, UniProt P04626); assay: HER-2 Kinase Assay; conditions: for IC50: value in parentheses; for inhibition at 1 µM: test concentration of 1 μM
T1 construct: His6 with thrombin site (N); purchased Proqinase (Freiburg, Germany)
Method in brief: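 GST/HIS6-tagged HER-2 aa 679–1255 kinase with biotinylated polyGluTyr (1.5 ng/μL), 1 μM ATP plus γ-33P-ATP, Mg2+/Mn2+, DTT, Hepes pH 7.5; 1 h at 30 °C. Substrate phosphorylation captured on streptavidin scintillation plates after EDTA/PBS washes; values are % inhibition at 1 μM or IC50.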

c-Src kinase (human) = biological target: T2, c-Src kinase (human) (Homo sapiens, UniProt P12931); assay: c-Src Kinase Assay; conditions: test concentration of 2 μM; multiple values are separate assay results
T2 construct: purchased Upstate Biotechnology, Lake Placid, N.Y
T2 sequence (P12931 whole entry): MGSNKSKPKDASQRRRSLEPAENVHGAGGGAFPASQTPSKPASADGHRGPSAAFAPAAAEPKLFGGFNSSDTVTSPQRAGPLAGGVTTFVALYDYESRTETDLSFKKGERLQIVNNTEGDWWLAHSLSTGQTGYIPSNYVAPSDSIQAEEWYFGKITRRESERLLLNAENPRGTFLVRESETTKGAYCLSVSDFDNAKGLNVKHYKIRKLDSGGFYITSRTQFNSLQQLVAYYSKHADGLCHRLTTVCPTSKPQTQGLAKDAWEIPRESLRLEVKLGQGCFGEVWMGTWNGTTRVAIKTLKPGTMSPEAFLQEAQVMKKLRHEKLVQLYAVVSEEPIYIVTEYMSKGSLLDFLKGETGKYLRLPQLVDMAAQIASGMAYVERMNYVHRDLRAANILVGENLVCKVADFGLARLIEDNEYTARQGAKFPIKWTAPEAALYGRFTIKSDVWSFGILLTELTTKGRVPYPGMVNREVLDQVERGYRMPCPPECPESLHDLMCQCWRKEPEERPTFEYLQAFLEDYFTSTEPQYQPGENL
Method in brief: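 Inhibition was read as 33P incorporation, counted on P30 filtermats, after a 40 min, 30° C reaction. Human c-Src acted on 100 μM Cdc2 peptide with 5 μM ATP (final), pH 7.0 MOPS/MgCl2. Values are percent inhibition at 2 μM compound, or IC50 where determined.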

Lyn kinase (human) = biological target: T3, Lyn kinase (human) (Homo sapiens, UniProt P07948); assay: Lyn Kinase Assay; conditions: test concentration of 2 μM
T3 construct: purchased Upstate Biotechnology, Lake Placid, N.Y
T3 sequence (P07948 whole entry): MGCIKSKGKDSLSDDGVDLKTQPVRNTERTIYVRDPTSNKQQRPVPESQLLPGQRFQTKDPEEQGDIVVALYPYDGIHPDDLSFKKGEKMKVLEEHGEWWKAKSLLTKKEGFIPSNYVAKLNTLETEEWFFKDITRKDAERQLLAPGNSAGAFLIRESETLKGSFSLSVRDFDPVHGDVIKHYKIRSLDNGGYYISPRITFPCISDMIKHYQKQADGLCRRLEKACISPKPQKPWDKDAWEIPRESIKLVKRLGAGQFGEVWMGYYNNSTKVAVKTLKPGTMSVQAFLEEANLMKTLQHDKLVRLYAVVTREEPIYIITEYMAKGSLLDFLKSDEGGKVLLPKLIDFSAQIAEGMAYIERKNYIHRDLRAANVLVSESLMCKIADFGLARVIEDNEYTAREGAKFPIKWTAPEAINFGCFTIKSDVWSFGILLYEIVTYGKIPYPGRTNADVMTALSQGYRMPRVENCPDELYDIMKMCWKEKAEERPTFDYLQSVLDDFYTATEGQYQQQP
Method in brief: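 Radiometric filter-binding assay with recombinant human Lyn, poly(Glu,Tyr) substrate (0.1 mg/mL final), 5 μM ATP plus γ-33P-ATP in MOPS pH 7.5/Mg acetate buffer; 40 min at 30 °C, stopped with phosphoric acid, counted by scintillation. Reported as percent inhibition at 2 μM, with IC50 (μM) where determined.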

EGFR = biological target: T4, EGFR (Homo sapiens, UniProt P00533); assay: EGFR Kinase Assay; conditions: for inhibition at 2 µM: test concentration of 2 μM, compounds without an IC50, read-out: EGFR inhibition in percent; for IC50: GST-EGFR, ATP 5 μM
T4 construct: The intracellular portion of EGFR started at nucleotide 2189 (corresponding to amino acid 667) and ended at the termination codon; made in house; host or cells: Sf9 insect cells (baculovirus)
T4 sequence (P00533 669-1210 limits assumed): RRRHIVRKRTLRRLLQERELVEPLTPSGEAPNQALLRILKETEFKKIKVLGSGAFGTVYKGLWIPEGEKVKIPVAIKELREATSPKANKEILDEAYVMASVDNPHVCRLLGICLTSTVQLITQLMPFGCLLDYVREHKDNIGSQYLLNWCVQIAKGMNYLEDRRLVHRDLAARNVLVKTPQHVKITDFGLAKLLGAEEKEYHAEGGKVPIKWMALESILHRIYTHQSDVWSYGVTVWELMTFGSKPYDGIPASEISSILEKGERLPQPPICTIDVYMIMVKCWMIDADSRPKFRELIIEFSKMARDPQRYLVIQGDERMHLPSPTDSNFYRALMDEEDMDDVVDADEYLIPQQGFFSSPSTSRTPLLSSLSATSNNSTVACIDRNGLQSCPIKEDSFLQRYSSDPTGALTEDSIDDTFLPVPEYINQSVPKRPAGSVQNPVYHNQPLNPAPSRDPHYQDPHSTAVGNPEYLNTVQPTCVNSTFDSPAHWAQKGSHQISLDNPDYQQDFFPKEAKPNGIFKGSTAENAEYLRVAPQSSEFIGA
Method in brief: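 GST-fused human EGFR intracellular domain (from aa 667), Sf9-expressed, phosphorylated biotinylated polyGluTyr with 5 μM ATP plus γ-33P ATP in Tris pH 8.0, MgCl2, vanadate, 1 mM DTT, 1 h at 30 °C. Streptavidin Flashplate scintillation read; triplicate 16-point half-log series from 200 uM; IC50 from % inhibition vs log concentration, else % inhibition at 2 μM.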

T1 sequence (P04626 679-1255): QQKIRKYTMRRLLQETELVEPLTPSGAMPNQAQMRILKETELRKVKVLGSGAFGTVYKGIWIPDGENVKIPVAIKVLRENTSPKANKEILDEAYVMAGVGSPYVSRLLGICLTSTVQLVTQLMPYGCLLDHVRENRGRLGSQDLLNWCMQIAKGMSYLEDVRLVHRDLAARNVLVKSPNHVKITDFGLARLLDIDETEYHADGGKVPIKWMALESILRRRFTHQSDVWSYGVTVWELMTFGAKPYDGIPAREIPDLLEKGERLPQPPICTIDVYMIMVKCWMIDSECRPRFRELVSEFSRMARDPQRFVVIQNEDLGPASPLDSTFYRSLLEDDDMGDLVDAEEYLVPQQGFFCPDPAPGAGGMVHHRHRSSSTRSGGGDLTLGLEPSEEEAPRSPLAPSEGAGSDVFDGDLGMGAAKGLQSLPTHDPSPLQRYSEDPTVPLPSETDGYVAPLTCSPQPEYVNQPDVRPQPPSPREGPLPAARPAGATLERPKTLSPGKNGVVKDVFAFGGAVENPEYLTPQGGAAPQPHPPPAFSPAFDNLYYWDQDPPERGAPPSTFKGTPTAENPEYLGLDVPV

IC50 (HER-2)	inhibition at 2 µM (c-Src kinase (human))	inhibition at 2 µM (Lyn kinase (human))	inhibition at 2 µM (EGFR)	inhibition at 1 µM (HER-2)	IC50 (EGFR)	SMILES
> 100000 nM	5%	21%	20%			O=C(Nc1ccc(N2CCOCC2)cc1)c1sc2ncnc3c2c1NC(=O)N3c1ccc(N2CCOCC2)cc1 [Cpd 125, 5-(4-morpholin-4-yl-phenyl)-4-oxo-4,5-dihydro-3H-1-thia-3,5,6,8-tetraaza-acenaphthylene-2-carboxylic acid (4-morpholin-4-yl-phenyl)-amide]
> 100000 nM	-4%	19%	3%			CC(C)(C)OC(=O)N1CCC(NC(=O)c2sc3ncnc4c3c2NC(=O)N4c2ccc(N3CCOCC3)cc2)CC1 [Cpd 126, 4-{[5-(4-morpholin-4-yl-phenyl)-4-oxo-4,5-dihydro-3H-1-thia-3,5,6,8-tetraaza-acenaphthylene-2-carbonyl]-amino}-piperidine-1-carboxylic acid tert-butyl ester]
> 100000 nM	-2%	25%	0.5%			O=C(NCc1ccco1)c1sc2ncnc3c2c1NC(=O)N3c1ccc(N2CCOCC2)cc1 [Cpd 127, 5-(4-morpholin-4-yl-phenyl)-4-oxo-4,5-dihydro-3H-1-thia-3,5,6,8-tetraaza-acenaphthylene-2-carboxylic acid (furan-2-ylmethyl)-amide]
515 nM	-3%	10%		63%	154 nM	Cc1ccc(Oc2ccc(N3C(=O)Nc4c(C(=O)Nc5ccc(CN6CCOCC6)cc5)sc5ncnc3c45)cc2Cl)cn1 [Cpd 129, 5-[3-chloro-4-(6-methyl-pyridin-3-yloxy)-phenyl]-4-oxo-4,5-dihydro-3H-1-thia-3,5,6,8-tetraaza-acenaphthylene-2-carboxylic acid (4-morpholin-4-ylmethyl-phenyl)-amide]
> 100000 nM	-3%	32%			191 nM	O=C(Nc1ccccc1)c1sc2ncnc3c2c1NC(=O)N3c1cccc(Br)c1 [Cpd 130, 5-(3-bromo-phenyl)-4-oxo-4,5-dihydro-3H-1-thia-3,5,6,8-tetraaza-acenaphthylene-2-carboxylic acid phenylamide]
84 nM	36%	41%		91%	10 nM	O=C(Nc1ccc(CN2CCCCC2)cc1)c1sc2ncnc3c2c1NC(=O)N3c1ccc(Oc2cccc(F)c2)cc1 [Cpd 131, 5-[4-(3-fluoro-phenoxy)-phenyl]-4-oxo-4,5-dihydro-3H-1-thia-3,5,6,8-tetraaza-acenaphthylene-2-carboxylic acid (4-piperidin-1-ylmethyl-phenyl)-amide]
495 nM	32%	33%		76%	15 nM	O=C(Nc1ccc(CCN2CCCCC2)cc1)c1sc2ncnc3c2c1NC(=O)N3c1ccc(Oc2cccc(F)c2)cc1 [Cpd 132, 5-[4-(3-fluoro-phenoxy)-phenyl]-4-oxo-4,5-dihydro-3H-1-thia-3,5,6,8-tetraaza-acenaphthylene-2-carboxylic acid [4-(2-piperidin-1-yl-ethyl)-phenyl]-amide]
> 10000 nM	16%	20%		0%	34 nM	O=C(NCCCO)c1sc2ncnc3c2c1NC(=O)N3c1ccc(Oc2cccc(F)c2)cc1 [Cpd 133, 5-[4-(3-fluoro-phenoxy)-phenyl]-4-oxo-4,5-dihydro-3H-1-thia-3,5,6,8-tetraaza-acenaphthylene-2-carboxylic acid (3-hydroxy-propyl)-amide]
87 nM	49%	48%		35%	21 nM	O=C(Nc1ccc(CN2CCOCC2)cc1)c1sc2ncnc3c2c1NC(=O)N3c1ccc(Oc2cccc(F)c2)cc1 [Cpd 134, 5-[4-(3-fluoro-phenoxy)-phenyl]-4-oxo-4,5-dihydro-3H-1-thia-3,5,6,8-tetraaza-acenaphthylene-2-carboxylic acid (4-morpholin-4-ylmethyl-phenyl)-amide]
90 nM	12%	46%		85%	18 nM	O=C(Nc1ccc(CN2CCCCC2)cc1)c1sc2ncnc3c2c1NC(=O)N3c1ccc(Oc2ccccc2)c(Cl)c1 [Cpd 135, 5-(3-chloro-4-phenoxy-phenyl)-4-oxo-4,5-dihydro-3H-1-thia-3,5,6,8-tetraaza-acenaphthylene-2-carboxylic acid (4-piperidin-1-ylmethyl-phenyl)-amide]
222 nM	-41%	43%		70%	31 nM	O=C(Nc1ccc(CCN2CCCCC2)cc1)c1sc2ncnc3c2c1NC(=O)N3c1ccc(Oc2ccccc2)c(Cl)c1 [Cpd 136, 5-(3-chloro-4-phenoxy-phenyl)-4-oxo-4,5-dihydro-3H-1-thia-3,5,6,8-tetraaza-acenaphthylene-2-carboxylic acid [4-(2-piperidin-1-yl-ethyl)-phenyl]-amide]
1630 nM	26%	43%		48%	30 nM	O=C(NCCCO)c1sc2ncnc3c2c1NC(=O)N3c1ccc(Oc2ccccc2)c(Cl)c1 [Cpd 137, 5-(3-chloro-4-phenoxy-phenyl)-4-oxo-4,5-dihydro-3H-1-thia-3,5,6,8-tetraaza-acenaphthylene-2-carboxylic acid (3-hydroxy-propyl)-amide]
178 nM	39%	50%			59 nM	O=C(Nc1ccc(CN2CCOCC2)cc1)c1sc2ncnc3c2c1NC(=O)N3c1ccc(Oc2ccccc2)c(Cl)c1 [Cpd 138, 5-(3-chloro-4-phenoxy-phenyl)-4-oxo-4,5-dihydro-3H-1-thia-3,5,6,8-tetraaza-acenaphthylene-2-carboxylic acid (4-morpholin-4-ylmethyl-phenyl)-amide]
> 100000 nM	28%	34%	18%			O=C(Nc1ccc(CN2CCCCC2)cc1)c1sc2ncnc3c2c1NC(=O)N3c1ccc(-c2ccc(Cl)cc2)cc1 [Cpd 139, 5-(4′-chloro-biphenyl-4-yl)-4-oxo-4,5-dihydro-3H-1-thia-3,5,6,8-tetraaza-acenaphthylene-2-carboxylic acid (4-piperidin-1-ylmethyl-phenyl)-amide]
> 100000 nM	25%	43%	20%			O=C(Nc1ccc(CN2CCOCC2)cc1)c1sc2ncnc3c2c1NC(=O)N3c1ccc(-c2ccc(Cl)cc2)cc1 [Cpd 140, 5-(4′-chloro-biphenyl-4-yl)-4-oxo-4,5-dihydro-3H-1-thia-3,5,6,8-tetraaza-acenaphthylene-2-carboxylic acid (4-morpholin-4-ylmethyl-phenyl)-amide]
381 nM	10%	39%			11 nM	NCCCNC(=O)c1sc2ncnc3c2c1NC(=O)N3c1ccc2c(ccn2Cc2cccc(F)c2)c1 [Cpd 142, 5-[1-(3-fluoro-benzyl)-1H-indol-5-yl]-4-oxo-4,5-dihydro-3H-1-thia-3,5,6,8-tetraaza-acenaphthylene-2-carboxylic acid (3-amino-propyl)-amide]
	67%	84%		18%	330 nM	COc1cc(NC(=O)c2sc3ncnc4c3c2NC(=O)N4c2ccc(F)cc2Cl)ccc1OCCN1CCCCC1 [Cpd 144, 5-(2-chloro-4-fluoro-phenyl)-4-oxo-4,5-dihydro-3H-1-thia-3,5,6,8-tetraaza-acenaphthylene-2-carboxylic acid [3-methoxy-4-(2-piperidin-1-yl-ethoxy)-phenyl]-amide]
4230 nM	50%	83%		54%	166 nM	O=C(Nc1ccc(CN2CCCCC2)cc1)c1sc2ncnc3c2c1NC(=O)N3c1ccc(F)cc1Cl [Cpd 145, 5-(2-chloro-4-fluoro-phenyl)-4-oxo-4,5-dihydro-3H-1-thia-3,5,6,8-tetraaza-acenaphthylene-2-carboxylic acid (4-piperidin-1-ylmethyl-phenyl)-amide]

Source: patent US7579356B2, “Thia-tetraazaacenaphthylene kinase inhibitors” (Janssen Pharmaceutica NV, priority 2005, dated 2009)
